# Tests used:
# [1] = tested on: Glomerella lacenarium (Colletotrichum lagenarium); assay: Glomerella lagenarium liquid culture / cucumber / preventative (anthracnose); type: cell-based; details: Colletotrichum orbiculare; 20 ppm in the applied formulation; liquid culture (PDB), growth inhibition measured photometrically 3 to 4 days after application; compared to untreated; read-out: disease control
# Protocol: Mycelia fragments or conidia suspensions of a fungus prepared either freshly from liquid cultures of the fungus or from cryogenic storage, are directly mixed into nutrient broth. DMSO solutions of the test compound (max. 10 mg/ml) are diluted with 0.025% Tween20 by a factor of 50 and 10 μl of this solution is pipetted into a microtiter plate (96-well format). The nutrient broth containing the fungal spores/mycelia fragments is then added to give an end concentration of the tested compound. The test plates are incubated in the dark at 24° C. and 96% relative humidity. The inhibition of fungal growth is determined photometrically after 2 to 7 days, depending on the pathosystem, and percent antifungal activity relative to the untreated check is calculated.
# Conidia of the fungus from cryogenic storage are directly mixed into nutrient broth (PDB—potato dextrose broth). After placing a (DMSO) solution of test compound into a microtiter plate (96-well format), the nutrient broth containing the fungal spores is added.
# The following compounds at 20 ppm in the applied formulation give at least 80% disease control in this test when compared to untreated control under the same conditions, which show extensive disease development.
# [2] = tested on: Puccinia recondita f. Sp. Tritici; assay: Puccinia recondita f. sp. tritici / wheat / leaf disc preventative (brown rust); type: in vivo; details: foliar, 200 ppm in the applied formulation, wheat leaf segments cv. Kanzler, preventative (inoculated 1 day after application), compared to untreated, read-out: disease control
# Protocol: Leaf disks or leaf segments of various plant species are cut from plants grown in a greenhouse. The cut leaf disks or segments are placed in multiwell plates (24-well format) onto water agar. The leaf disks are sprayed with a test solution before (preventative) or after (curative) inoculation. Compounds to be tested are prepared as DMSO solutions (max. 10 mg/ml) which are diluted to the appropriate concentration with 0.025% Tween20 just before spraying. The inoculated leaf disks or segments are incubated under defined conditions (temperature, relative humidity, light, etc.) according to the respective test system. A single evaluation of disease level is carried out 3 to 14 days after inoculation, depending on the pathosystem. Percent disease control relative to the untreated check leaf disks or segments is then calculated. Wheat leaf segments cv. Kanzler were placed on agar in multiwell plates (24-well format) and sprayed with the formulated test compound diluted in water. The leaf disks were inoculated with a spore suspension of the fungus 1 day after application. The inoculated leaf segments were incubated at 19° C. and 75% relative humidity (rh) under a light regime of 12 hours light/12 hours darkness in a climate cabinet and the activity of a compound was assessed as percent disease control compared to untreated when an appropriate level of disease damage appears in untreated check leaf segments (7 to 9 days after application). The following compounds at 200 ppm in the applied formulation give at least 80% disease control in this test when compared to untreated control leaf disks under the same conditions, which show extensive disease development.
# [3] = tested on: Puccinia recondita f. Sp. Tritici; assay: Puccinia recondita f. sp. tritici / wheat / leaf disc curative (brown rust); type: in vivo; details: foliar, 24 h, 200 ppm in the applied formulation, wheat leaf segments cv. Kanzler, curative (applied 1 day after inoculation), compared to untreated, read-out: disease control
# Protocol: Leaf disks or leaf segments of various plant species are cut from plants grown in a greenhouse. The cut leaf disks or segments are placed in multiwell plates (24-well format) onto water agar. The leaf disks are sprayed with a test solution before (preventative) or after (curative) inoculation. Compounds to be tested are prepared as DMSO solutions (max. 10 mg/ml) which are diluted to the appropriate concentration with 0.025% Tween20 just before spraying. The inoculated leaf disks or segments are incubated under defined conditions (temperature, relative humidity, light, etc.) according to the respective test system. A single evaluation of disease level is carried out 3 to 14 days after inoculation, depending on the pathosystem. Percent disease control relative to the untreated check leaf disks or segments is then calculated.
# Wheat leaf segments cv. Kanzler are placed on agar in multiwell plates (24-well format). The leaf segments are then inoculated with a spore suspension of the fungus. Plates were stored in darkness at 19° C. and 75% relative humidity. The formulated test compound diluted in water was applied 1 day after inoculation. The leaf segments were incubated at 19° C. and 75% relative humidity under a light regime of 12 hours light/12 hours darkness in a climate cabinet and the activity of a compound was assessed as percent disease control compared to untreated when an appropriate level of disease damage appears in untreated check leaf segments (6 to 8 days after application).
# The following compounds at 200 ppm in the applied formulation give at least 80% disease control in this test when compared to untreated control leaf disks under the same conditions, which show extensive disease development.
SMILES,inhibition of growth at 20 ppm [1] [%],pest or weed control at 200 ppm [2] [%],pest or weed control at 200 ppm [3] [%]
"COCCC(=O)NCc1ccc(-c2noc(C(F)(F)F)n2)cc1F [Compound 1.37, N-[[2-fluoro-4-[5-(trifluoromethyl)-1,2,4-oxadiazol-3-yl]phenyl]methyl]-3-methoxy-propanamide]",≥ 80,≥ 80,≥ 80
"COCCCC(=O)NCc1ccc(-c2noc(C(F)(F)F)n2)c(F)c1 [Compound 1.40, N-[[3-fluoro-4-[5-(trifluoromethyl)-1,2,4-oxadiazol-3-yl]phenyl]methyl]-4-methoxy-butanamide]",≥ 80,≥ 80,≥ 80
"COCCCC(=O)NCc1ccc(-c2noc(C(F)(F)F)n2)cc1F [Compound 1.42, N-[[2-fluoro-4-[5-(trifluoromethyl)-1,2,4-oxadiazol-3-yl]phenyl]methyl]-4-methoxy-butanamide]",≥ 80,≥ 80,≥ 80
"N#CCC(=O)NCc1ccc(-c2noc(C(F)(F)F)n2)c(F)c1 [Compound 1.43, 2-cyano-N-[[3-fluoro-4-[5-(trifluoromethyl)-1,2,4-oxadiazol-3-yl]phenyl]methyl]acetamide]",≥ 80,≥ 80,≥ 80
"N#CCC(=O)NCc1ccc(-c2noc(C(F)(F)F)n2)cc1F [Compound 1.45, 2-cyano-N-[[2-fluoro-4-[5-(trifluoromethyl)-1,2,4-oxadiazol-3-yl]phenyl]methyl]acetamide]",≥ 80,≥ 80,≥ 80
"CC(C)C(=O)NCc1ccc(-c2noc(C(F)(F)F)n2)cc1Cl [Compound 1.50, N-[[2-chloro-4-[5-(trifluoromethyl)-1,2,4-oxadiazol-3-yl]phenyl]methyl]-2-methyl-propanamide]",≥ 80,–,–
"CCCC(=O)NCc1ccc(-c2noc(C(F)(F)F)n2)cc1Cl [Compound 1.52, N-[[2-chloro-4-[5-(trifiuoromethyl)-1,2,4-oxadiazol-3-yl]phenyl]methyl]butanamide]",≥ 80,–,–
"COCCC(=O)NCc1ccc(-c2noc(C(F)(F)F)n2)c(F)c1F [Compound 1.53, N-[[2,3-difluoro-4-[5-(trifluoromethyl)-1,2,4-oxadiazol-3-yl]phenyl]methyl]-3-methoxy-propanamide]",≥ 80,≥ 80,≥ 80
"COCCC(=O)NCc1ccc(-c2noc(C(F)(F)F)n2)cc1Cl [Compound 1.55, N-[[2-chloro-4-[5-(trifluoromethyl)-1,2,4-oxadiazol-3-yl]phenyl]methyl]-3-methoxy-propanamide]",≥ 80,–,–
"COCC(=O)NCc1ccc(-c2noc(C(F)(F)F)n2)cc1Cl [Compound 1.57, N-[[2-chloro-4-[5-(trifluoromethyl)-1,2,4-oxadiazol-3-yl]phenyl]methyl]-2-methoxy-acetamide]",≥ 80,–,≥ 80
"CCC(C)C(=O)NCc1ccc(-c2noc(C(F)(F)F)n2)cc1Cl (stereo not shown) [Compound 1.58, N-[[2-chloro-4-[5-(trifluoromethyl)-1,2,4-oxadiazol-3-yl]phenyl]methyl]-2-methyl-butanamide]",≥ 80,–,–
"COCCCC(=O)NCc1ccc(-c2noc(C(F)(F)F)n2)cc1Cl [Compound 1.60, N-[[2-chloro-4-[5-(trifluoromethyl)-1,2,4-oxadiazol-3-yl]phenyl]methyl]-4-methoxy-butanamide]",≥ 80,≥ 80,≥ 80
"COCCCC(=O)NCc1ccc(-c2noc(C(F)(F)F)n2)c(F)c1F [Compound 1.61, N-[[2,3-difluoro-4-[5-(trifluoromethyl)-1,2,4-oxadiazol-3-yl]phenyl]methyl]-4-methoxy-butanamide]",≥ 80,≥ 80,≥ 80
"N#CCC(=O)NCc1ccc(-c2noc(C(F)(F)F)n2)c(F)c1F [Compound 1.62, 2-cyano-N-[[2,3-difluoro-4-[5-(trifluoromethyl)-1,2,4-oxadiazol-3-yl]phenyl]methyl]acetamide]",≥ 80,≥ 80,≥ 80
"CC(=O)NCc1ccc(-c2noc(C(F)(F)F)n2)cc1Cl [Compound 1.64, N-[[2-chloro-4-[5-(trifluoromethyl)-1,2,4-oxadiazol-3-yl]phenyl]methyl]acetamide]",≥ 80,≥ 80,–
"COCC(=O)NCc1ccc(-c2noc(C(F)(F)F)n2)cc1C(F)(F)F [Compound 1.70, 2-methoxy-N-[[2-(trifluoromethyl)-4-[5-(trifiuoromethyl)-1,2,4-oxadiazol-3-yl]phenyl]methyl]acetamide]",≥ 80,–,–
"N#CCC(=O)NCc1ccc(-c2noc(C(F)(F)F)n2)cn1 [Compound 1.73, 2-cyano-N-[[5-[5-(trifluoromethyl)-1,2,4-oxadiazol-3-yl]-2-pyridyl]methyl]acetamide]",≥ 80,–,≥ 80
"CCCCCOC(=O)NCc1ccc(-c2noc(C(F)(F)F)n2)cc1 [Compound 2.9, pentyl N-[[4-[5-(trifluoromethyl)-1,2,4-oxadiazol-3-yl]phenyl]methyl]carbamate]",–,≥ 80,–
"CCCCCOC(=O)NCc1ccc(-c2noc(C(F)(F)F)n2)cn1 [Compound 2.23, pentyl N-[[5-[5-(trifluoromethyl)-1,2,4-oxadiazol-3-yl]-2-pyridyl]methyl]carbamate]",≥ 80,≥ 80,–
"CC(C)(C)COC(=O)NCc1ccc(-c2noc(C(F)(F)F)n2)cn1 [Compound 2.34, 2,2-dimethylpropyl N-[[5-[5-(trifluoromethyl)-1,2,4-oxadiazol-3-yl]-2-pyridyl]methyl]carbamate]",≥ 80,–,≥ 80
"CC(C)(C)CNC(=O)NCc1ccc(-c2noc(C(F)(F)F)n2)cc1 [Compound 3.8, 1-(2,2-dimethylpropyl)-3-[[4-[5-(trifluoromethyl)-1,2,4-oxadiazol-3-yl]phenyl]methyl]urea]",–,≥ 80,–
"CC(C)CNC(=O)NCc1ccc(-c2noc(C(F)(F)F)n2)cc1 [Compound 3.11, 1-isobutyl-3-[[4-[5-(trifluoromethyl)-1,2,4-oxadiazol-3-yl]phenyl]methyl]urea]",≥ 80,≥ 80,–
O=C(NCCCCl)NCc1ccc(-c2noc(C(F)(F)F)n2)cn1 [Compound 3.19],–,≥ 80,–
"CCCCNC(=O)NCc1ccc(-c2noc(C(F)(F)F)n2)cn1 [Compound 3.20, 1-butyl-3-[[5-[5-(trifluoromethyl)-1,2,4-oxadiazol-3-yl]-2-pyridyl]methyl]urea]",≥ 80,≥ 80,–

# — patent US10501425B2, “Microbiocidal oxadiazole derivatives” (SYNGENTA PARTICIPATIONS AG, priority 2015, dated 2019)
